# Results from patent publication US11612607B2, “Fenoldopam topical formulations for treating skin disorders” (TARO PHARMACEUTICAL INDUSTRIES LTD., priority 2016, dated 2023).
# Assays:
# Format in all cases: in vivo, BALB/c mice
# [1] = system: IMQ-induced psoriasis model; assay: First animal study: histopathology (H&E) of dorsal skin; details: vs. IMQ-treated group
# From the text: (§1) The effect of topical compositions on the treatment of psoriasis has been tested in two animal studies. In both studies, typical features of psoriasis, namely erythema, scaling, and skin thickness, were induced by the application of 5% w/w imiquimod (IMQ) cream on the dorsal skin of BALB/c mice over a period of 6 consecutive days. Animals that developed psoriasis-like symptoms were used for studying the efficacy of the fenoldopam topical compositions. In the fenoldopam-treated groups, the animals received imiquimod only for the first two days. From the third day of the study, the animals received imiquimod and fenoldopam for the next four days. […]
# IL-17 [2] = assay: First animal study: IL-17 in skin homogenates (ELISA)
# From the text: (§2) The effect of topical compositions on the treatment of psoriasis has been tested in two animal studies. In both studies, typical features of psoriasis, namely erythema, scaling, and skin thickness, were induced by the application of 5% w/w imiquimod (IMQ) cream on the dorsal skin of BALB/c mice over a period of 6 consecutive days. Animals that developed psoriasis-like symptoms were used for studying the efficacy of the fenoldopam topical compositions. In the fenoldopam-treated groups, the animals received imiquimod only for the first two days. From the third day of the study, the animals received imiquimod and fenoldopam for the next four days. First Animal Study: The different treatment groups of mice used in the first animal study were as following: the SHAM group in the study represents mice which were shaven on the dorsal side without any treatment; negative control group represents the typical psoriatic model induced by imiquimod 5% (IMQ); positive control group represents the mice induced with psoriasis by imiquimod and then treated with the marketed steroid betamethasone valerate (IMQ BMV); and treatment groups represent the mice induced with psoriasis by imiquimod and then treated with a topical dose of 1 mg/cm^2 fenoldopam using different compositions of fenoldopam, such as solution (IMQ FD), water-washable ointment (IMQ WB 45/55), or anhydrous gel (IMQ AG BHT) compositions.
# (§3) An IMQ-induced psoriasis model reproduces biochemical and histopathological parameters characteristic of human psoriatic lesions. Topical application of the IMQ cream increased levels of cytokines such as IL-23, TNF-α, and IL-17 in the treated skin tissues. The skin homogenates obtained from mice of different groups were analyzed using ELISA for quantification of IL-17, IL-23, and TNF-α, levels as the selected interleukins are the typical inflammatory markers of psoriasis. […] The effect of fenoldopam was as effective as the reference topical treatment with the marketed steroid.
# IL-17 [3] = assay: Second animal study: IL-17 in skin homogenates (ELISA)
# From the text: as §2, with “In” for “The effect of topical compositions on the treatment of psoriasis has been tested in two animal studies. In”
# (§4) The second animal study was conducted in order to test additional topical compositions of fenoldopam with different strengths (0.01%, 0.1% and 1% of fenoldopam), as well as the effect of systemic administration of fenoldopam. […]
# (§5) The skin homogenates obtained from mice of the different groups were analyzed using ELISA for quantification of IL-17, IL-23, TNF-α, and IL-22 levels, as the selected interleukins are the typical inflammatory markers of psoriasis.
# IL-23 [4] = assay: First animal study: IL-23 in skin homogenates (ELISA)
# From the text: as §2, §3
# TNF-α [5] = assay: Second animal study: TNF-α in skin homogenates (ELISA)
# From the text: as §2, with “In” for “The effect of topical compositions on the treatment of psoriasis has been tested in two animal studies. In”
# as §4, §5
# IL-23 [6] = assay: Second animal study: IL-23 in skin homogenates (ELISA)
# From the text: as §2, with “In” for “The effect of topical compositions on the treatment of psoriasis has been tested in two animal studies. In”
# The second animal study was conducted in order to test additional topical compositions of fenoldopam with different strengths (0.01%, 0.1% and 1% of fenoldopam), as well as the effect of systemic administration of fenoldopam. The different groups of mice used in the second animal study were as following: the SHAM group in the study represents mice which were shaven on the dorsal side without any treatment; negative control group represents the typical psoriatic model induced by imiquimod 5% (IMQ); positive control group represents the mice induced with psoriasis by imiquimod and then treated with the marketed steroid betamethasone valerate (IMQ BMV); and treatment groups represent the mice induced with psoriasis by imiquimod and then treated with a topical dose of various compositions of fenoldopam: water-washable base (IMQ_WB45/55-0.01%, IMQ_WB45/55-0.1%, IMQ_WB45/55-1% or IMQ_WB45/55_1% No citric acid), or oleaginous ointment composition (IMQ_OB 0.01%, IMQ_OB 0.1% or IMQ_OB […]). An additional group of mice received systemic Fenoldopam by intraperitoneal injection (IMQ_FD_IP).
# as §5
# [7] = system: IMQ-induced psoriasis model; assay: First animal study: IMQ-induced psoriasis, phenotype and PASI scoring
# From the text: as §1
# Psoriatic area and severity index (PASI) scoring has been analyzed to determine the efficacy of the fenoldopam compositions of the present invention with appropriate controls as part of the study. FIG. 11 depicts PASI scoring including body weight, erythema, scaling, and skin thickness determined during the study. […]
# TNF-α [8] = assay: First animal study: TNF-α in skin homogenates (ELISA)
# From the text: as §2, §3
# [9] = system: IMQ-induced psoriasis model; assay: Second animal study: IMQ-induced psoriasis, phenotype and PASI scoring; details: compared to negative control
# From the text: as §2, with “In” for “The effect of topical compositions on the treatment of psoriasis has been tested in two animal studies. In”
# as §4
# IL-22 = assay: Second animal study: IL-22 in skin homogenates (ELISA)
# From the text: as §2, with “In” for “The effect of topical compositions on the treatment of psoriasis has been tested in two animal studies. In”
# as §4, §5
# [10] = system: IMQ-induced psoriasis model; assay: Second animal study: histopathology (H&E) of skin; details: skin collected on the 7th day
# From the text: as §2, with “In both” for “The effect of topical compositions on the treatment of psoriasis has been tested in two animal studies. In both”, “BHT) compositions. […]” for “BHT) compositions.”
smiles,measurement,setting,value
"CCCCC(=O)O[C@]1(C(=O)CO)[C@@H](C)C[C@H]2[C@@H]3CCC4=CC(=O)C=C[C@]4(C)[C@@]3(F)[C@@H](O)C[C@@]21C [BMV, betamethasone valerate]",Histopathology (H&E): psoriatic features,[1],decline in the intensity of psoriatic features
same,Decrease in IL-17 levels in comparison with the IMQ group,IL-17 [2]; first animal study,2.74 fold
same,Level of IL-17,IL-17 [2]; vs. IMQ group,inhibited
same,"Fold difference in IL-17 levels (↓, vs. IMQ)",IL-17 [3]; listed as IMQ_BMV,1.43 ↓ fold
same,"Fold difference in IL-17 levels (↓, vs. IMQ)",IL-17 [3]; listed as positive control,1.43 fold
same,Decrease in IL-23 levels in comparison with the IMQ group,IL-23 [4]; first animal study,2.02 fold
same,Level of IL-23,IL-23 [4]; vs. IMQ group,inhibited
same,"Fold difference in TNF-α levels (↓, vs. IMQ)",TNF-α [5]; listed as IMQ_BMV,2.21 ↓ fold
same,"Fold difference in TNF-α levels (↓, vs. IMQ)",TNF-α [5]; listed as positive control,2.21 fold
same,Decline in IL-23 levels compared to the negative control,IL-23 [6]; listed as IMQ_BMV,decline in IL-23 levels
same,"Fold difference in IL-23 levels (↓, vs. IMQ)",IL-23 [6]; listed as IMQ_BMV,1.57 ↓ fold
same,"Fold difference in IL-23 levels (↓, vs. IMQ)",IL-23 [6]; listed as positive control,1.57 fold
same,Psoriatic symptoms (phenotypic images of dorsal skin),"[7]; IMQ-treated mice, topical treatment for four days, 1 mg/cm^2 fenoldopam",amelioration of psoriatic symptoms
same,PASI scores over the treatment period,"[7]; scale of 0-4, vs. negative control",declines in PASI scores
same,Decrease in TNF-α levels in comparison with the IMQ group,TNF-α [8]; first animal study,2.75 fold
same,Level of TNF-α,TNF-α [8]; vs. IMQ group,inhibited
same,"Psoriasis symptoms (phenotypic images: erythema, scaling, skin thickness)",[9],remission of the psoriasis symptoms
same,"Psoriasis symptoms (phenotypic images: erythema, scaling, skin thickness)",[9]; listed as IMQ_BMV,amelioration of psoriatic symptoms
same,"Fold difference in IL-22 levels (↓, vs. IMQ)",IL-22; listed as IMQ_BMV,1.55 ↓ fold
same,"Fold difference in IL-22 levels (↓, vs. IMQ)",IL-22; listed as positive control,1.55 fold
same,Histopathology (H&E): psoriatic features,[10],ameliorated all of the above-mentioned parameters
